{
  "source": "patent US9943496B2",
  "about": "“Dietary supplement based on ethyl ferulate” (LABORATORIOS MINKAB, S. A. DE C. V., priority 2015, dated 2018)",
  "key": {"heifers [1]": {"tested_on": "heifers", "test": "Productive performance test of heifers supplemented with ethyl ferulate in the diet", "type": "in vivo, Bos taurus", "details": "for Final weight: last 30 days of intensive feeding; for Final weight / Feed conversion / Daily gain / Feed intake: mean ± standard error; for Feed conversion / Daily gain / Feed intake: last 30 days; for Feed conversion: feed consumption/daily gain", "experimental": "Productive performance test was conducted in the feedlot of a commercial farm, located in the state of Sonora, Mexico, at an altitude of 210 meters above sea level, latitude 29° 05′ 56″ and longitude 110° 57′ 15″ (INEGI, 2012).\nPrior to the start of the study, 270 cattle (heifers) commercial beef producers crosses (of racial influence mainly Bos taurus), which were divided into three lots with uniform power days, racial origin and composition were selected. The animals were weighed individually and identified with plastic earring different color, to be distributed randomly according to a block design (3) complete random. To facilitate the handling of heifers and scheduling your humane slaughter, each block was postponed one week and was formed by three pens with 30 animals each.\nOnce done animals blocks, each pen within each block was completely randomized one of the following treatments: • Treatment CONT: Animals receiving the basal diet without additive (control). • Treatment FE5: Animals receiving the basal diet supplemented the last 30 days of fattening stage 5 ppm of ethyl ferulate. • Treatment FE10: Animals receiving the basal diet supplemented the last 30 days of the fattening phase with 10 ppm of ethyl ferulate.\nThe initial live weight of the animals was 484.68±2.84 kg. All animals were fed a basal diet with a ratio of forage:concentrate of 20:80, which was formulated to contain 1.62 Mcal of net energy gain/kg of feed, 12.7% crude protein, 0.91% Calcium and 0.27% phosphorus. The amount of ethyl ferulate per ton of feed was first added to the mineral premix and later it was incorporated into the automated experimental ration.\nAll animals were individually weighed at the beginning and end of the experimental test, for which an electronic scale Tru-Test 300 (Tru-Test Corporation, New Zealand) equipped with recording memory was used. Daily weight gain (GDP) was estimated by the difference between initial and final weight and divided by 30 (the feeding period).\nFeed intake was recorded daily for corral, for which both the food offered and refused was weighed. Feed conversion per pen/treatment with the average food consumption ratio between GDP was also calculated.\n(§1) Productive performance data were analyzed by ANOVA with a design of a randomized complete block using the method of generalized linear models (GLM) using initial weight as a covariate; data carcass quality were analyzed under a completely randomized design blocks. The variance analysis (mixed models procedure), included as a fixed effect to experimental treatments and as a random effect the initial weight of animals for productive performance data and final weight for carcass quality. The study data shelf life was analyzed using analysis of variance of two ways, considering the fixed effects of treatment and storage time. When differences between treatments were detected in productive performance variables and carcass quality, comparisons of means were performed by orthogonal contrasts. The following contrasts were tested: Contrast 1: Control vs FE5+FE10; Contrast 2: FE5 vs FE10. For data quality meat in the study of oxidative stability, the comparison of means was by the Tukey test. All data were processed in the statistical package NCSS (NCSS Version 8.0, 2012)."}, "heifers [2]": {"tested_on": "heifers", "test": "Sacrifice and evaluation of carcass quality of supplemented heifers", "type": "in vivo, Bos taurus", "details": "for Backfat / Cold carcass yield / Hot yield carcass / Rib eye area / Cold carcass weight / Hot carcass weight: last 30 days; for Cold carcass weight: 24 h postmortem; for Hot carcass weight: mean ± standard error; for Marbling: USDA marbling score (Little 500-599, Modesto 600-699); for % de Choice or greater: percentage of carcass classified Choice or higher", "experimental": "Once the productive performance test was finished, the animals were sacrificed following the current regulations.\nThe pH was measured at 45 min and 24 h postmortem in the Longissimus dorsi (LD) at the 12th intercostal space using a portable digital potentiometer brand HANNA HI 99163 (Mettler-Toledo Process Analytical Inc., Wilmington, Mass., USA). The weight of the hot carcass was recorded, then the carcasses were cooled to 0° C. for 24 h.\nAt 24 h postmortem the weight of the cold carcass was measured. In at least 36 carcasses per treatment, area in cm^2 rib eye, the thickness of back fat in mm, was evaluated. The degree of marbling was also evaluated following USDA guidelines (2000): Trace (300-399), Light (400-499), Little (500-599), Modest (600-699), Moderate (700-799), Slightly abundant (800-899). These determinations were made in the LD muscle to level 12th intercostal space. Finally, the quality level of the channel according to USDA (2000) was estimated, based on the degree of marbling and carcass physiological maturity: Select − (400-449), Select + (450-499) Choice − (500-599), Choice medium (600-699), Choice + (700-799), Prime (800 or greater).\nas §1"}, "[3]": {"details": "compared with ferulic acid; cited from earlier work"}, "β receptors": {"tested_on": "β receptors", "details": "bovine satellite cells, in vitro; cited from earlier work"}, "swine": {"tested_on": "swine", "details": "50 ppm, swine confinement; cited from earlier work"}, "[4]": {"details": "contrast C1: Control vs FE5+FE10, P<0.05"}, "[5]": {"details": "FE supplemented vs control, P<0.05"}},
  "data": [
    {"smiles": "CCOC(=O)/C=C/c1ccc(O)c(OC)c1", "note": "[ethyl ferulate]", "values": [
      {"measurement": "Final weight", "setting": "heifers [1]; FE5: 5 ppm/day", "value": "519.58 ± 5.4", "unit": "kg"},
      {"measurement": "Feed conversion", "setting": "heifers [1]; FE5: 5 ppm/day", "value": "8.78 ± 0.6", "unit": "kg"},
      {"measurement": "Daily gain", "setting": "heifers [1]; FE5: 5 ppm/day", "value": "1.13 ± 0.04", "unit": "kg"},
      {"measurement": "Feed intake", "setting": "heifers [1]; FE5: 5 ppm/day", "value": "8.11 ± 0.07", "unit": "kg"},
      {"measurement": "Final weight", "setting": "heifers [1]; FE10: 10 ppm/day", "value": "520.20 ± 5.63", "unit": "kg"},
      {"measurement": "Feed conversion", "setting": "heifers [1]; FE10: 10 ppm/day", "value": "7.25 ± 0.27", "unit": "kg"},
      {"measurement": "Daily gain", "setting": "heifers [1]; FE10: 10 ppm/day", "value": "1.23 ± 0.04", "unit": "kg"},
      {"measurement": "Feed intake", "setting": "heifers [1]; FE10: 10 ppm/day", "value": "8.09 ± 0.07", "unit": "kg"},
      {"measurement": "Less feed required to gain one kilogram of live weight", "setting": "heifers [1]; FE supplemented heifers vs control", "value": 4.3, "unit": "kg"},
      {"measurement": "Improvement in feed conversion relative to control", "setting": "heifers [1]; [4]", "value": 35, "unit": "%"},
      {"measurement": "Increase of daily gain (GDP) relative to control", "setting": "heifers [1]; [4]", "value": 26, "unit": "%"},
      {"measurement": "Thickness of the dorsal fat, effect of treatments", "setting": "heifers [2]; 5 and 10 ppm vs control, P>0.05", "value": "not affected by treatments"},
      {"measurement": "Marbling, 10 ppm FE regarding 5 ppm FE", "setting": "heifers [2]; 10 ppm vs 5 ppm", "value": "higher marbling"},
      {"measurement": "Backfat", "setting": "heifers [2]; FE5: 5 ppm/day", "value": "14.60 ± 1.05", "unit": "mm"},
      {"measurement": "Cold carcass yield", "setting": "heifers [2]; FE5: 5 ppm/day", "value": "61.77 ± 0.16", "unit": "%"},
      {"measurement": "Hot yield carcass", "setting": "heifers [2]; FE5: 5 ppm/day", "value": "62.38 ± 0.15", "unit": "%"},
      {"measurement": "Rib eye area", "setting": "heifers [2]; FE5: 5 ppm/day", "value": "85.67 ± 2.28", "unit": "cm^2"},
      {"measurement": "Cold carcass weight", "setting": "heifers [2]; FE5: 5 ppm/day", "value": "320.81 ± 3.25", "unit": "kg"},
      {"measurement": "Hot carcass weight", "setting": "heifers [2]; FE5: 5 ppm/day", "value": "323.97 ± 3.25", "unit": "kg"},
      {"measurement": "Marbling", "setting": "heifers [2]; FE5: 5 ppm/day", "value": "578.57 ± 16"},
      {"measurement": "% de Choice or greater", "setting": "heifers [2]; FE5: 5 ppm/day", "value": 66.7, "unit": "%"},
      {"measurement": "Backfat", "setting": "heifers [2]; FE10: 10 ppm/day", "value": "15.82 ± 0.84", "unit": "mm"},
      {"measurement": "Cold carcass yield", "setting": "heifers [2]; FE10: 10 ppm/day", "value": "61.68 ± 0.19", "unit": "%"},
      {"measurement": "Hot yield carcass", "setting": "heifers [2]; FE10: 10 ppm/day", "value": "62.39 ± 0.19", "unit": "%"},
      {"measurement": "Rib eye area", "setting": "heifers [2]; FE10: 10 ppm/day", "value": "86.60 ± 1.87", "unit": "cm^2"},
      {"measurement": "Cold carcass weight", "setting": "heifers [2]; FE10: 10 ppm/day", "value": "320.50 ± 3.19", "unit": "kg"},
      {"measurement": "Hot carcass weight", "setting": "heifers [2]; FE10: 10 ppm/day", "value": "324.19 ± 3.23", "unit": "kg"},
      {"measurement": "Marbling", "setting": "heifers [2]; FE10: 10 ppm/day", "value": "637.14 ± 15"},
      {"measurement": "% de Choice or greater", "setting": "heifers [2]; FE10: 10 ppm/day", "value": 80, "unit": "%"},
      {"measurement": "Hot carcass weight (PCC) greater than control", "setting": "heifers [2]; FE supplemented heifers vs control, P<0.001", "value": 1.80, "unit": "%"},
      {"measurement": "Increase of cold carcass weight (PCF) vs control", "setting": "heifers [2]; [5]", "value": 1.86, "unit": "%"},
      {"measurement": "Marbling of supplemented compared to non supplemented animals", "setting": "heifers [2]; [5]", "value": "More marbling"},
      {"measurement": "Increase in carcass weight vs control", "setting": "heifers [2]; hot carcass, FE supplemented vs control", "value": "more than 5 kg"},
      {"measurement": "Antibacterial and antioxidant capacity", "setting": "[3]", "value": "very similar to those of ferulic acid"}
    ]},
    {"smiles": "COc1cc(/C=C/C(=O)O)ccc1O", "note": "[AF, Ferulic acid]", "values": [
      {"measurement": "Recognition by β receptors on the cell membrane", "setting": "β receptors", "value": "recognized by β receptors"},
      {"measurement": "Back fat thickness over the control group", "setting": "swine", "value": "decrease"}
    ]}
  ]
}
